According to ChEMBL document CHEMBL1201862, “PubChem BioAssay data set” (2004):
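Five concentrations, 48 hours, 96-well plates. GI50: concentration for 50% inhibition of growth.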 Active and inactive are the calls of the source. Rule as the data show it: active = GI50 up to about 1.1 µM and inactive = higher.

How the values were obtained:
Experiment in all cases: growth of human tumour cells (NCI), 48 h
[1] = test system: NCI-H522
[2] = test system: OVCAR-3
[3] = test system: UACC-62
[4] = test system: RXF 393
[5] = test system: HOP-62
[6] = test system: NCI-H460
[7] = test system: DU-145
[8] = test system: RPMI-8226
[9] = test system: IGROV-1
[10] = test system: HL-60
[11] = test system: MOLT-4
[12] = test system: BT-549
[13] = test system: SF-295
[14] = test system: UO-31
[15] = test system: SNB-19
[16] = test system: KM12
[17] = test system: NCI/ADR-RES
[18] = test system: NCI-H23
[19] = test system: 786-0
[20] = test system: HCT-15

Row | SMILES | GI50 [1] | GI50 [2] | GI50 [3] | GI50 [4] | GI50 [5] | GI50 [6] | GI50 [7] | GI50 [8] | GI50 [9] | GI50 [10] | GI50 [11] | GI50 [12] | GI50 [13] | GI50 [14] | GI50 [15] | GI50 [16] | GI50 [17] | GI50 [18] | GI50 [19] | GI50 [20]
1 | COc1cc(C2C3=C(COC3=O)Oc3cc4c(cc32)OCO4)cc(OC)c1OC (stereo not given) | 0.001 µM (active) | 0.025 µM (active) | 0.0166 µM (active) | 0.0106 µM (active) | < 0.0255 µM (active) | 0.0216 µM (active) | 0.0256 µM (active) | 0.0401 µM (active) | 0.0489 µM (active) | 0.0154 µM (active) | 0.024 µM (active) | 0.245 µM (active) | 0.0109 µM (active) | 0.139 µM (active) | 0.034 µM (active) | 0.0112 µM (active) | 0.0185 µM (active) | 0.0441 µM (active) | 0.0333 µM (active) | < 0.0158 µM
2 | N#Cc1c(-c2ccc(Cl)cc2)c(-c2ccc(Cl)cc2)nn(CCOC(=O)CCC(=O)O)c1=O | 0.51 µM (active) | 0.361 µM (active) | 0.26 µM (active) | 0.327 µM (active) | 0.64 µM (active) | 0.807 µM (active) | 0.615 µM (active) | 0.76 µM (active) | 0.925 µM (active) | 0.339 µM (active) | 0.566 µM (active) | 11.9 µM (inactive) | 0.522 µM (active) | 1.11 µM (active) | 2.65 µM (inactive) | 0.245 µM (active) | 1.32 µM (inactive) | 2.16 µM (inactive) | 0.755 µM (active) | 0.532 µM
3 | S=C1SCN(Cc2ccco2)CN1c1ccc(Br)cc1 | 10.3 µM (inactive) | 7.76 µM (inactive) | 2.94 µM (inactive) | 30.6 µM (inactive) | 23.8 µM (inactive) | 7.33 µM (inactive) | 26.2 µM (inactive) | 15.4 µM (inactive) | 16.4 µM (inactive) | 13.2 µM (inactive) | 17.4 µM (inactive) | 16.7 µM (inactive) | 6.98 µM (inactive) | 22.9 µM (inactive) | 21.8 µM (inactive) | 11.1 µM (inactive) | 18.3 µM (inactive) | 14.7 µM (inactive) | 17.1 µM (inactive) | 8.69 µM
4 | COc1ccc(/C=C2\CCC(CN(C)C)C2=O)cc1 (stereo not given) | 1.1 µM (active) | 4.12 µM (inactive) | 8.91 µM (inactive) | 2.94 µM (inactive) | 12.2 µM (inactive) | 16.6 µM (inactive) | 2.94 µM (inactive) | 0.832 µM (active) | 8.47 µM (inactive) | 1.02 µM (active) | 1.83 µM (inactive) | 3.26 µM (inactive) | 17.9 µM (inactive) | 8.59 µM (inactive) | 10.3 µM (inactive) | 8.26 µM (inactive) | 2.36 µM (inactive) | 7.91 µM (inactive) | 1.65 µM (inactive) | 2.29 µM
5 | COC(=O)C1=C(O)C(C(=O)OC)[C@]2(O)[C@H](C(=O)OC)[C@H]1C[C@@H](c1ccccc1OC)[C@H]2C(=O)OC (stereo not given in full) | 1.84 µM (inactive) | 6.04 µM (inactive) | 4.24 µM (inactive) | 5.06 µM (inactive) | 12.3 µM (inactive) | 4.51 µM (inactive) | 5.07 µM (inactive) | 2.17 µM (inactive) | 3.33 µM (inactive) | 3.29 µM (inactive) | 3.59 µM (inactive) | 3.15 µM (inactive) | 6.08 µM (inactive) | 10 µM (inactive) | 5.24 µM (inactive) | 6.14 µM (inactive) | 2.61 µM (inactive) | 3.52 µM (inactive) | 7.76 µM (inactive) | 3.31 µM
6 | CCOC(=O)NNC1(SC)NC(=O)c2c(cc(Cl)oc2=O)O1 (stereo not given) | 2.12 µM (inactive) | 2.84 µM (inactive) | 5.97 µM (inactive) | 3.14 µM (inactive) | 11.3 µM (inactive) | 8 µM (inactive) | 4.17 µM (inactive) | 2.84 µM (inactive) | 3.87 µM (inactive) | 1.9 µM (inactive) | 2.67 µM (inactive) | 4.37 µM (inactive) | 12.4 µM (inactive) | 1.72 µM (inactive) | 11.5 µM (inactive) | 10.4 µM (inactive) | 6.84 µM (inactive) | 3.61 µM (inactive) | 1.92 µM (inactive) | 2.17 µM
7 | CC(CN(C)C)C(C#N)(c1ccccc1)c1ccccc1 (stereo not given) | > 100 µM (inactive) | > 100 µM (inactive) | > 100 µM (inactive) | > 100 µM (inactive) | > 100 µM (inactive) | > 100 µM (inactive) | > 100 µM (inactive) | 78.2 µM (inactive) | > 100 µM (inactive) | > 100 µM (inactive) | > 100 µM (inactive) | > 100 µM (inactive) | > 100 µM (inactive) | > 100 µM (inactive) | > 100 µM (inactive) | > 100 µM (inactive) | > 100 µM (inactive) | > 100 µM (inactive) | > 100 µM (inactive) | > 100 µM
8 | CNC(=O)N(CCC#N)CCCN(C(=O)NC)c1ccccc1 | > 100 µM (inactive) | > 100 µM (inactive) | > 100 µM (inactive) | > 100 µM (inactive) | > 100 µM (inactive) | > 100 µM (inactive) | > 100 µM (inactive) | > 100 µM (inactive) | > 100 µM (inactive) | > 100 µM (inactive) | > 100 µM (inactive) | > 100 µM (inactive) | > 100 µM (inactive) | > 100 µM (inactive) | > 100 µM (inactive) | > 100 µM (inactive) | > 100 µM (inactive) | > 100 µM (inactive) | > 100 µM (inactive) | > 100 µM
9 | CN1CN(c2ccccc2)C2(CCN(C(=O)OC(C)(C)C)CC2)C1=O | > 100 µM (inactive) | > 100 µM (inactive) | > 100 µM (inactive) | 63.2 µM (inactive) | > 100 µM (inactive) | > 100 µM (inactive) | > 100 µM (inactive) | 98.2 µM (inactive) | > 100 µM (inactive) | > 100 µM (inactive) | > 100 µM (inactive) | > 100 µM (inactive) | > 100 µM (inactive) | > 100 µM (inactive) | > 100 µM (inactive) | > 100 µM (inactive) | > 100 µM (inactive) | > 100 µM (inactive) | > 100 µM (inactive) | > 100 µM
10 | COC1=C(OC)C(=O)c2cc(C)c(=O)c(C)cc2C1=O | 14.6 µM (inactive) | 10.4 µM (inactive) | 13.4 µM (inactive) | 15.3 µM (inactive) | 21.3 µM (inactive) | 24.7 µM (inactive) | 16.9 µM (inactive) | 5.69 µM (inactive) | 18.6 µM (inactive) | 2.82 µM (inactive) | 2.27 µM (inactive) | 15.2 µM (inactive) | 32.6 µM (inactive) | 13.8 µM (inactive) | 18.4 µM (inactive) | 17.6 µM (inactive) | 17 µM (inactive) | 16.9 µM (inactive) | 11.9 µM (inactive) | 21.3 µM
11 | Nc1cccc(CCN2CCN(CCCc3ccccc3)CC2)c1 | 16.5 µM (inactive) | 19.4 µM (inactive) | 21.8 µM (inactive) | 21.2 µM (inactive) | 36.5 µM (inactive) | 25.4 µM (inactive) | 55.1 µM (inactive) | 33.2 µM (inactive) | 37.3 µM (inactive) | 17.2 µM (inactive) | 30.5 µM (inactive) | 52.5 µM (inactive) | 24.8 µM (inactive) | 26.7 µM (inactive) | > 100 µM (inactive) | 24.9 µM (inactive) | > 100 µM (inactive) | 50.2 µM (inactive) | 18.2 µM (inactive) | 18 µM
12 | O=C1CC(n2cccc2)c2c(Br)sc(Br)c21 (stereo not given) | 1.49 µM (inactive) | 15.8 µM (inactive) | 15.9 µM (inactive) | 20.6 µM (inactive) | 22.1 µM (inactive) | 18 µM (inactive) | 16.6 µM (inactive) | 8.24 µM (inactive) | 16.2 µM (inactive) | 15.1 µM (inactive) | 8.93 µM (inactive) | 18.6 µM (inactive) | 23.3 µM (inactive) | 2.56 µM (inactive) | 14.9 µM (inactive) | 7.23 µM (inactive) | 26.1 µM (inactive) | 13.6 µM (inactive) | 18.3 µM (inactive) | 12.8 µM
13 | CCOP(=O)(C[S+](C)[O-])O[C@@H]1C[C@H](C)CC[C@H]1C(C)C (stereo not given in full) | 2.26 µM (inactive) | 4.44 µM (inactive) | 2.17 µM (inactive) | 2.59 µM (inactive) | 5.53 µM (inactive) | 4.5 µM (inactive) | 6.37 µM (inactive) | 1.85 µM (inactive) | 3.25 µM (inactive) | 3.48 µM (inactive) | 5.18 µM (inactive) | 5.25 µM (inactive) | 5.6 µM (inactive) | 1.17 µM (inactive) | 12.2 µM (inactive) | 3.14 µM (inactive) | 7.29 µM (inactive) | 4.13 µM (inactive) | 2.73 µM (inactive) | 2.71 µM
14 | O=C(NCCCCNCCCNC(=O)OCc1ccccc1)OCc1ccccc1 | 21.2 µM (inactive) | > 100 µM (inactive) | 17.9 µM (inactive) | 16.5 µM (inactive) | 27.8 µM (inactive) | 23.6 µM (inactive) | 73.6 µM (inactive) | 39 µM (inactive) | 22.1 µM (inactive) | 20.3 µM (inactive) | 26.9 µM (inactive) | 55 µM (inactive) | 21.8 µM (inactive) | 24.2 µM (inactive) | 37.8 µM (inactive) | 32 µM (inactive) | 36.4 µM (inactive) | > 100 µM (inactive) | 21.9 µM (inactive) | 61.5 µM
